Assays:
[1] = biological target: T1, Peroxisome proliferator-activated receptor gamma (Homo sapiens, UniProt P37231); test: Agonist activity at human PPARgamma
T1 sequence (P37231 whole entry): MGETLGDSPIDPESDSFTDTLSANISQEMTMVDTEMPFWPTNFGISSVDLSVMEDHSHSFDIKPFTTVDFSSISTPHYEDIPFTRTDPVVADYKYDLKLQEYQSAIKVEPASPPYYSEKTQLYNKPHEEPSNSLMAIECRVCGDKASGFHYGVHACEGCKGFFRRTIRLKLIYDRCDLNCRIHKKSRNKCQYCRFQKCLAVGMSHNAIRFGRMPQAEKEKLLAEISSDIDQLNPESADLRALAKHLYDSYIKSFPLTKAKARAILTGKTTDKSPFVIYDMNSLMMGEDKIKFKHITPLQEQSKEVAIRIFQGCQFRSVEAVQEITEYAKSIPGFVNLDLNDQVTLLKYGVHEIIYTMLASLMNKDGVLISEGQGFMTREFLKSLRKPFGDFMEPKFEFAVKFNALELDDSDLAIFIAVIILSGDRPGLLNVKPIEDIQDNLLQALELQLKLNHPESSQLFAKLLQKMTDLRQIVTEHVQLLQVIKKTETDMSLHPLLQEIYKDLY

[2] = biological target: T2, Peroxisome proliferator-activated receptor gamma (Homo sapiens) (UniProt P37231); test: Agonist activity at human PPARgamma at 1 uM relative to pioglitazone
T2 sequence (whole entry): T1 sequence (P37231 whole entry)

[3] = Stability in mouse liver microsomes assessed as parent compound remaining after 30 mins; format: ADME, Microsome; settings: read-out: Stability
[4] = Stability in human liver microsomes assessed as parent compound remaining after 30 mins; format: ADME, Microsome; settings: read-out: Stability
[5] = biological target: T2, Peroxisome proliferator-activated receptor gamma (Homo sapiens); test: Agonist activity at human PPARgamma at 1 uM relative to telmisartan
[6] = Stability in rat liver microsomes assessed as parent compound remaining after 30 mins; format: ADME, Microsome; settings: read-out: Stability
[7] = Stability in dog liver microsomes assessed as parent compound remaining after 30 mins; format: ADME, Canis lupus familiaris, Microsome; settings: read-out: Stability
[8] = biological target: T3, Type-1 angiotensin II receptor (Homo sapiens, UniProt P30556); test: Antagonist activity at type-1 angiotensin 2 receptor (unknown origin) by calcium mobilizing assay; format: functional
T3 sequence (P30556 whole entry): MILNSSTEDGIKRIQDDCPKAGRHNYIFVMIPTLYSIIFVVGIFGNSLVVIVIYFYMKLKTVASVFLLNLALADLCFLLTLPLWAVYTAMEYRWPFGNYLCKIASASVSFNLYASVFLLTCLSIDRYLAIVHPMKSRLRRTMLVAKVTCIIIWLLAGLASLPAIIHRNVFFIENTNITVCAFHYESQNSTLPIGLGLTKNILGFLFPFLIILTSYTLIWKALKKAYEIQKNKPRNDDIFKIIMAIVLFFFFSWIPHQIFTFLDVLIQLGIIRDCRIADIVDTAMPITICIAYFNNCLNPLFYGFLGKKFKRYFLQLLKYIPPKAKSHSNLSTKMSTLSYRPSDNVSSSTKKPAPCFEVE

Mus musculus = test: Antidiabetic activity in db/db mouse assessed as random blood glucose level at 20 mg/kg, po administered once daily for 13 days measured post last dose (reference value: 530 mg/dl); format: functional
[9] = Toxicity in db/db mouse assessed as body weight at 20 mg/kg, po administered once daily for 13 days (reference value: 33.5 g); format: organism-based; settings: in vivo, 312 h
[10] = Drug metabolism in mouse liver S9 fraction assessed as acylglucuronide formation; format: ADME, subcellular
[11] = Drug metabolism in rat liver S9 fraction assessed as acylglucuronide formation; format: ADME, subcellular
[12] = Drug metabolism in human liver S9 fraction assessed as acylglucuronide formation; format: ADME, subcellular

SMILES	EC50 [1] [nM]	max activation [2] [%]	remaining at 0.5 h [3] [%]	remaining at 0.5 h [4] [%]	also measured
CCCCOC(=O)Cc1c(C)nc(CCCC)n(Cc2ccc(-c3ccccc3-c3noc(=O)[nH]3)cc2)c1=O	2250	116	10.2	2.8	
CCCCc1nc(C(C)(C)C)c(CC(=O)OCC)c(=O)n1Cc1ccc(-c2ccccc2-c2noc(=O)[nH]2)cc1			14	8.2	fold change (FC) [5]: < 1
CCCCc1nc(C)c(CC(=O)OCC2CC2)c(=O)n1Cc1ccc(-c2ccccc2-c2noc(=O)[nH]2)cc1	1810	101	13	20	
CCCCc1nc(C(C)C)c(C(C)C(=O)OCC)c(=O)n1Cc1ccc(-c2ccccc2-c2noc(=O)[nH]2)cc1 (stereo not given)			28	11	remaining at 0.5 h [6]: 19.2%; remaining at 0.5 h [7]: 43.8%; fold change (FC) [5]: 1.3
CCCCc1nc(C)c(CC(=O)OCC(C)C)c(=O)n1Cc1ccc(-c2ccccc2-c2noc(=O)[nH]2)cc1	1530	114	7.7	2.4	
CCCCc1nc(C(C)C)c(CC(=S)N2CCCC2)c(=O)n1Cc1ccc(-c2ccccc2-c2noc(=O)[nH]2)cc1	3100	66			IC50 [8]: 2.2 nM
CCCCCOC(=O)Cc1c(C(C)C)nc(CCCC)n(Cc2ccc(-c3ccccc3-c3noc(=O)[nH]3)cc2)c1=O	1090	54	19.7	10.6	
CCCCc1nc(C)c(CC(=O)OC)c(=O)n1Cc1ccc(-c2ccccc2-c2noc(=O)[nH]2)cc1	7360	74	47.1	69.6	
CCCCc1nc(C(C)C)c(CC(=O)OCC(C)C)c(=O)n1Cc1ccc(-c2ccccc2-c2noc(=O)[nH]2)cc1	1230	128	13.7	8.8	
CCCCc1nc(C(C)C)c(CC(=O)OC2CCCCC2)c(=O)n1Cc1ccc(-c2ccccc2-c2noc(=O)[nH]2)cc1	730	88	14.6	13.3	
CCCCOC(=O)Cc1c(C(C)C)nc(CCCC)n(Cc2ccc(-c3ccccc3-c3noc(=O)[nH]3)cc2)c1=O	1000	73	21.6	7.1	
CCCCc1nc(C)c(CC(=O)OC2CCCCC2)c(=O)n1Cc1ccc(-c2ccccc2-c2noc(=O)[nH]2)cc1	1000	98	10.7	3.9	
CCCCc1nc(C(C)C)c(CC(=O)OC(CC)CC)c(=O)n1Cc1ccc(-c2ccccc2-c2noc(=O)[nH]2)cc1			14.6	7.7	
CCCCc1nc(C(C)C)c(CC(=O)OCC(F)(F)F)c(=O)n1Cc1ccc(-c2ccccc2-c2noc(=O)[nH]2)cc1	2780	65			
[2H]C([2H])(C(=O)OCC)c1c(C)nc(CCCC)n(Cc2ccc(-c3ccccc3-c3noc(=O)[nH]3)cc2)c1=O			78.4	46.5	remaining at 0.5 h [6]: 87.3%; remaining at 0.5 h [7]: 86.8%
CCCCc1nc(C(C)C)c(CC(=O)OC)c(=O)n1Cc1ccc(-c2ccccc2-c2noc(=O)[nH]2)cc1	2620	96	9.4	10.5	
CCc1ccc(CCOc2ccc(CC3SC(=O)NC3=O)cc2)nc1 (stereo not given) [PIOGLITAZONE]					Activity (Mus musculus): 213 mg/dL; Activity [9]: 32.3 g
CC#CCOC(=O)Cc1c(C)nc(CCCC)n(Cc2ccc(-c3ccccc3-c3noc(=O)[nH]3)cc2)c1=O	2530	99	18.3	32	
CCCCc1nc(C)c(CC(=O)OCC)c(=O)n1Cc1ccc(-c2ccccc2-c2noc(=O)[nH]2)cc1			12.9	46.6	remaining at 0.5 h [6]: 14.3%; remaining at 0.5 h [7]: 50.9%; fold change (FC) [5]: 0.93; fold change (FC) ([5]; tested as the 2H-labelled form): 0.82
CC#CCOC(=O)Cc1c(C(C)C)nc(CCCC)n(Cc2ccc(-c3ccccc3-c3noc(=O)[nH]3)cc2)c1=O	1060	103	16.4	13.7	
CCCCc1nc(C(C)C)c(CC(=O)O)c(=O)n1Cc1ccc(-c2ccccc2-c2noc(=O)[nH]2)cc1	10300	2	100	86.8	Drug metabolism [10]: Metabolite_Detected; Drug metabolism [11]: Metabolite_Detected; Drug metabolism [12]: Metabolite_Detected
CCCCc1nc(C2CC2)c(CC(=O)OC(C)C)c(=O)n1Cc1ccc(-c2ccccc2-c2noc(=O)[nH]2)cc1	2720	87	14	9.9	
CCCCc1nc(C(C)C)c(CC(=O)OCCC)c(=O)n1Cc1ccc(-c2ccccc2-c2noc(=O)[nH]2)cc1	1500	133	12.6	7.2	
CCCCc1nc(C(C)C)c(CC(=O)OC2CC2)c(=O)n1Cc1ccc(-c2ccccc2-c2noc(=O)[nH]2)cc1	1360	89	11.4	10.3	
CCCCc1nc(C)c(CC(=O)OC2CC2)c(=O)n1Cc1ccc(-c2ccccc2-c2noc(=O)[nH]2)cc1	3310	62	12.8	34.5	
CCCCc1nc(C2CC2)c(CC(=O)OC)c(=O)n1Cc1ccc(-c2ccccc2-c2noc(=O)[nH]2)cc1	2360	83	16.4	24.4	
CCCCc1nc(C)c(CC(=O)OC(C)C)c(=O)n1Cc1ccc(-c2ccccc2-c2noc(=O)[nH]2)cc1	1660	114	4	17.5	
CCCCc1nc(C)c(CC(=O)OCC2CCCCC2)c(=O)n1Cc1ccc(-c2ccccc2-c2noc(=O)[nH]2)cc1	1320	90	8.9	11.5	

Source: ChEMBL document CHEMBL4330101, “Identification of BR101549 as a lead candidate of non-TZD PPARγ agonist for the treatment of type 2 diabetes: Proof-of-concept evaluation and SAR” (Bioorg Med Chem Lett, 2019)
